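Five compound concentrations were applied to cells in 96-well plates for 48 hours; endpoints were derived by simple linear interpolation of the resulting dose-response curve. The concentration for 50% growth inhibition is given as GI50. TGI is the concentration that stops growth completely.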
What was measured:
Test in all cases: DTP human tumour cell line panel, 48 h
[1] = system: 786-0 renal
[2] = system: HCT-116 colon
[3] = system: HOP-92 NSCLC
[4] = system: MDA-MB-435
[5] = system: NCI-H522 lung
[6] = system: PC-3 prostate
[7] = system: SK-MEL-28 melanoma
[8] = system: SW-620 colon
[9] = system: T-47D breast
[10] = system: UACC-62 melanoma

Structure (SMILES)	GI50 [1] [nM]	TGI [1] [µM]	GI50 [2] [nM]	TGI [2] [µM]	TGI [3] [µM]	GI50 [4] [nM]	TGI [4] [µM]	GI50 [5] [nM]	TGI [5] [µM]	GI50 [6] [nM]	TGI [6] [µM]	GI50 [7] [nM]	TGI [7] [µM]	TGI [8] [µM]	GI50 [9] [nM]	TGI [9] [µM]	GI50 [10] [nM]	TGI [10] [µM]	GI50 [3] [nM]	GI50 [8] [nM]
COc1cccc2c1C(=N)c1c(O)c3c(c(O)c1C2=O)C[C@@](O)(C(C)=O)C[C@@H]3O[C@H]1C[C@H](N)[C@H](O)[C@H](C)O1	254	4.28	277	6.6	7.35	1660	8.91	256	1.5	1300	9.33	2580	13.9	3.65	240	4.17	248	1.79		
Cc1nnc(-c2ccc(C)c(-c3ccc(C(=O)Nc4cccc(C#N)c4)cc3)c2)o1	> 25000	> 25	> 25000	> 25	> 25	> 25000	> 25	> 25000	> 25	> 25000	> 25	> 25000	> 25	> 25	> 15900	> 25	> 25000	> 25	> 25000	> 25000
Cn1c(Cl)c(/C=C2/C(=O)Nc3ccccc32)c2ccccc21	1320	20.5	306	12.3	> 100	< 43.8	0.152	2390	22.4	859	> 33.7	1080	19.7	14.7	724	23.9	130	7.1	13400	299
COc1cc(C2c3cc4c(cc3OC(C)(N3CCCC3)C2C)OCO4)cc(OC)c1OC (stereo not drawn)		> 100		16.5	33.6		0.377		0.612		> 100		> 100	> 100		> 100		19.1		
CC/C=C\C[C@H]1CC=C2C(=O)C=C[C@@H]2CC=CCCCC(=O)O[C@@H](CCCCC)CC=C2C(=O)C=C[C@@H]2CC=CCCCC(=O)O[C@@H](CCCCC)CC=C2C(=O)C=C[C@@H]2CC=CCCCC(=O)O[C@@H](CCCCC)CC=C2C(=O)C=C[C@@H]2CC=CCCCC(=O)O1	2290	6.51	1300	3.06	4.32	1590	4.54	1760	4.48	2380	> 7.9	1990	6.3	> 7.9	1810	5.12	1520	3.59	1530	2540
CCN1C(=O)/C(=C/c2c(Cl)[nH]c3cc(C)c(OC)cc23)c2ccccc21	4870	21.3	3780	16.8	63.4	315	0.737	823	6.58	3910	> 100	49300	> 100	> 100	3760	> 100	526	23.7	12800	3670
CCN1CCCc2cc3c(C(F)(F)F)cc(=O)oc3cc21		> 100		> 100	84		> 100		> 100		93.1		> 100	> 100		> 100		> 100		
CN(C)Cc1cc(C(F)(F)F)ccc1C(O)(c1ccccc1)c1ccccc1		27.7		26.8	27		58		35		36		31	41		47.3		26		
CN(c1ccc(NC(=O)Nc2c(Cl)cccc2Cl)cc1)c1ccnc(Nc2cccc(CS(C)(=O)=O)c2)n1	3630	10.6	1300	7.45	12	2260	10.9	3100	9.23	1560	8.6	3560	9.47	> 16.8	4460	13.2	3110	8.36	2880	1620
CCN1C(=O)c2ccc3c4c(ccc(c24)C1=O)C(=O)N(CCCNCc1ccccc1OC)C3=O	1330	5.88	329	1.14	5.5	173	0.322	1190	2.68	613	5.18	1580	3.24	1.77	1000	3.29	468	1.63	2600	362

From PubChem BioAssay (NCI)
